Experimental data reported in PubChem BioAssay AID179 (DTP/NCI, 2004).
The source made the active and inactive calls.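 How the source made its calls: active means compounds giving half or more protection of infected cells from virus-caused growth loss, again on retest; inactive means the rest.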 Where a SMILES comes first, the peptide text is derived from it. [ ]: non-standard residue; d: D form. The star is where a group is joined. ξ: configuration not given here. ξPhe(4-NO2) = NC(Cc1ccc([N+](=O)[O-])cc1)C(=O)O; Fmoc = O=C(OCC1c2ccccc2-c2ccccc21)*; Boc = CC(C)(C)OC(=O)*; OBn = c1ccc(CO*)cc1; tBu = CC(C)(C)*

Test system: CEM cells HIV-1 protection, formazan growth assay
Assay: NCI AIDS Antiviral Assay
Settings: for IC50: measured here: growth of uninfected CEM cells
Outline: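 Category rules: moderately active means at least 50% protection on retest, and confirmed active means 100% protection reproducibly. The underlying data came from a formazan growth assay in HIV-1-infected CEM cells.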

Structure (SMILES)	EC50	IC50	outcome
CC(C)(C)OC(=O)NC(Cc1ccc([N+](=O)[O-])cc1)C(=O)NCC(=O)OCc1ccccc1 (stereo not given) (Boc-[ξPhe(4-NO2)]-Gly-OBn)	> 200 µM	33.1 µM	
CCCCNC(=O)/C(=C/c1ccc2c(c1)OCO2)NC(=O)c1ccccc1	> 200 µM	> 200 µM	
CC(=O)Oc1c2c(c(CC=C(C)C)c3c1C(=O)C1=C[C@@H]4CC5C(C)(C)OC(C/C=C(/C)C(=O)O)(C4=O)[C@@]15O3)OC(C)(CCC=C(C)C)C=C2 (stereo not given in full)	> 2 µM	0.324 µM	
Cc1cc(C)cc(Sc2c([N+](=O)[O-])ncn2C)c1	> 27.5 µM	16.2 µM	
CC(=O)OC1C[C@@]2(C)C(CC[C@@H]2C(C)=O)[C@@H]2CC=C3C[C@@H](O)CC[C@]3(C)C12 (stereo not given in full)			inactive
OCCSCCCSCCO	> 95.5 µM	72.4 µM	
CC(OC(C)(C)C)C(NC(=O)OCC1c2ccccc2-c2ccccc21)C(=O)NC(Cc1ccccc1)C(=O)OCc1ccccc1 (stereo not given) (Fmoc-Thr(tBu)-Phe-OBn; configuration not given here)	> 200 µM	> 200 µM	
CCOC(=O)C1(Cc2ccccc2)Cc2cc3c(cc2C1=O)CCC3 (stereo not given)	> 200 µM	14.8 µM	
CC(=O)O[C@H]1CC[C@@]2(C)C(CC[C@@H]3C2C(Br)C(=O)[C@]2(C)C4C(CC32)OC2(OCC(C)CC2Br)C4C)C1 (stereo not given in full)			inactive
Cc1noc2c1CC(=O)c1ccccc1OC2	> 389 µM	224 µM	
CCN(CC)CCCNc1ccc([N+](=O)[O-])c2nc3ccc(OC)cc3c(N)c12	> 200 µM	0.776 µM	
Cc1cc(Cl)ccc1N1C(=O)C(=O)C(c2nc3ccccc3o2)C(=O)C1=O			inactive
CC(CCC[C@H](C)CO)[C@H]1[C@@H](O)C(O)C2[C@@H]3C[C@@H](O)C4(O)C[C@@H](O)CC[C@]4(C)C3CC[C@@]21C (stereo not given in full)	> 200 µM	107 µM	
CC(=O)NC(CCCN(Cc1ccccc1)C(=O)NCCCl)C(=O)NCc1ccccc1 (stereo not given)	> 389 µM	347 µM	
Oc1ccc(Cl)cc1-c1nc2ccccc2s1	> 138 µM	75.9 µM	
CCOC(=O)C1(Cc2ccc3c(c2)CCC3)Cc2cc3c(cc2C1)CCC3	> 200 µM	15.5 µM	
O=C(Nc1ccc(C2=NCCN2)cc1)c1ccc(C(=O)Nc2ccc(C3=NCCN3)cc2)c(Br)c1	8.32 µM	20.9 µM	
N#C/C(=C\c1ccccc1Br)C(=O)c1ccccc1	> 32.4 µM	> 32.4 µM	
COC1OC2=CCC3C(=O)NC(=O)C3C2[C@H](OC)C1OC (stereo not given in full)			inactive
CCOC(=O)/C(C#N)=C1/Sc2c(ncn(/N=C/c3ccc(OC)cc3)c2=O)N1c1ccccc1	> 7.94 µM	> 7.94 µM	
Cc1ccc(C(=O)N2CCCCC2)cc1N=NN(C)C	> 263 µM	240 µM	

Structure (SMILES)	EC50	IC50	outcome
COc1cccc2c1OC1(N3CCOCC3)CCCCC1C2C[N+](=O)[O-] (stereo not given)	> 200 µM	> 200 µM	
Cc1ccccc1NC(=O)/C(=N/NC(=O)CC#N)C1C(=O)N(c2ccccc2)N=C1N (stereo not given)	> 12.6 µM	> 12.6 µM	
CC1(C)C(=O)CC[C@@]2(C)C1CC[C@]1(C)C2CC=C2[C@@H]3C[C@](C)(C(=O)O)CC[C@]3(C)CCC21C (stereo not given in full)	> 200 µM	95.5 µM	
O=Nc1c(-c2ccccc2)nc2ncccn12	> 200 µM	2.14 µM	
Cc1cc(C)n(-c2nsc3ccccc23)n1	> 112 µM	> 112 µM	
OCC(O)C(Cl)CCl (stereo not given)	> 200 µM	> 200 µM	
COC(=O)CCC(=O)N1CC1C (stereo not given)			inactive
COc1ccc(/C(Nc2ccccc2)=C(\CCl)c2ccccc2)cc1OC	> 200 µM	31.6 µM	
CN(C)c1ccc(/C=C(\NC(=O)c2ccccc2)C(=O)NC(Cc2c[nH]c3ccccc23)C(=O)O)cc1 (stereo not given)	> 100 µM	> 100 µM	
Cc1cc2c(cc1C)NS(=O)(=O)N2	> 447 µM	9.77 µM	
CCOC(=O)C1=C(Nc2cccc(OC)c2)OCC1=O	> 200 µM	> 200 µM	
Cn1nc2c(c(Cl)c1=O)Nc1ccccc1O2	> 200 µM	> 200 µM	
O=C(c1ccccc1Cl)c1c(O)c2ccccc2oc1=O	> 200 µM	> 200 µM	
O=C1C(S)=[N+](O)c2ccccc2[N+]1=O	> 200 µM	> 200 µM	
O=c1n(-c2ccc(Cl)c(Cl)c2)c(=O)n(-c2ccc(Cl)c(Cl)c2)c(=O)n1-c1ccc(Cl)c(Cl)c1	> 200 µM	5.89 µM	
CC(C)c1cccc(C(C)C)c1NC(=O)/C(Cc1nc2ccc(Cl)cc2[nH]c1=O)=N\NC(=O)C[N+](C)(C)C	> 162 µM	> 162 µM	
C[Si](C)(C)O/C=C1\CCCCC1=O	> 200 µM	> 200 µM	
C[C@@H](NC(=O)c1ccccc1SC(=O)CCCC[n+]1ccccc1)C(N)=O	0.741 µM	105 µM	
C[C@@]1(Cc2ccccc2)C(=O)N2[C@@H](CO)C(c3ccccc3)O[C@]2(C)c2ccccc21 (stereo not given in full)	> 33.1 µM	> 33.1 µM	
COC1O[C@H]2[C@H]3[C@@H]1[C@@H](OS(=O)(=O)c1ccc(C)cc1)C(=O)N3C[C@H]2O (stereo not given in full)	18.2 µM	141 µM	
O=C(Nc1ccc([N+](=O)[O-])cc1)C1C(=O)C(=O)N(c2ccc([N+](=O)[O-])cc2)C1=O (stereo not given)	> 234 µM	> 234 µM	

Structure (SMILES)	EC50	IC50	outcome
COC(=O)CC1(CNC(=O)OCc2ccccc2)OCCO1	> 200 µM	> 200 µM	
Cc1nc2ccccc2c(=O)n1NC(=O)c1ccc([N+](=O)[O-])cc1	> 200 µM	> 200 µM	
O=C(O)C(O[N+](=O)[O-])c1ccccc1 (stereo not given)			inactive
C=C(C)COC1CCCCO1 (stereo not given)	> 200 µM	38 µM	
CC1(C)OC(=O)C2C3C=CC(C2C(=O)O)C31 (stereo not given)	> 1120 µM	> 1120 µM	
c1c[se]c(-c2nc3ccccc3[nH]2)c1	> 69.2 µM	> 69.2 µM	
C[C@@H]1C(N2CCCC2)=CC(=O)OC1c1ccccc1 (stereo not given in full)	> 200 µM	> 200 µM	
O=C(O)c1cccc(/C=C/c2ccc(N=Nc3c(O)cc(O)cc3C(=O)O)cc2C(=O)O)c1	> 200 µM	158 µM	
COc1cc2oc(=O)cc(C)c2cc1[N+](=O)[O-]	> 53.7 µM	21.9 µM	
O=C1CCCC2=C1CC1=C(CCCC1=O)N2c1ccc(Cl)cc1	> 200 µM	105 µM	
CN(N=O)C(=O)N(N)CCCCC(NC(=O)OCc1ccccc1)C(=O)OCc1ccccc1 (stereo not given)	> 39.8 µM	> 39.8 µM	
S=c1sscc1-c1ccccc1	> 200 µM	186 µM	
CCN(CC)CCCCC1CCN(CC(=O)N2c3ccccc3NC(=O)CC2C)CC1 (stereo not given)	> 251 µM	38.9 µM	
Cc1ccc(NC(=O)SCCC(=O)O)cc1			inactive
O=C1[C@H](O)[C@@H]2CCC[C@@]23CCCN13	> 200 µM	> 200 µM	
CC1=C2C(=CC(C)(C)C2O)C(=O)C(C)(O)C12CC2 (stereo not given)			inactive
COC[C@]12CN(C=O)[C@H]3C4[C@H](OC)[C@H]1C3([C@@H](OC)C[C@H]2O)[C@@H]1C[C@@]2(O)[C@H](OC(=O)c3ccccc3)[C@@H]1[C@]4(OC(C)=O)[C@@H](O)[C@@H]2OC	> 200 µM	> 200 µM	
CC(=O)[O-].[Ni].c1ccc(/C(=N\Nc2ccccn2)c2ccccn2)cc1			inactive
N#CC1(c2nc3ccccc3o2)C(=O)C(=O)N(C2C3CC4CC(C3)CC2C4)C(=O)C1=O (stereo not given)	> 107 µM	> 107 µM	
O=C(NN1C(=O)C(Cl)C1c1c(O)ccc2ccccc12)c1ccccc1O (stereo not given)	> 67.6 µM	> 67.6 µM	
CCOP(=O)(OCC)/C(C#N)=C/c1ccc(-c2cc(C(F)(F)F)cc(C(F)(F)F)c2)o1	> 200 µM	11.7 µM	

Structure (SMILES)	EC50	IC50	outcome
O=C(OCCNC(=O)N1CC1)OCCNC(=O)N1CC1	> 200 µM	> 200 µM	
O=C1[C@@H]2C(c3ccccc3Br)=NO[C@@H]2C(=O)N1c1ccc(Cc2ccc(N3C(=O)[C@H]4C(c5ccccc5Br)=NO[C@H]4C3=O)cc2)cc1	> 9.55 µM	> 9.55 µM	
CC1=C(\C=C/C(C)=C/C=C/C(C)=C/C=N/N=C/C=C(C)\C=C\C=C(C)/C=C/C2=C(C)CCCC2(C)C)C(C)(C)CCC1	> 200 µM	45.7 µM	
c1ccc2c(c1)NC(C1OC3CCCN3C1C1Nc3ccccc3S1)S2 (stereo not given)	> 200 µM	107 µM	
O=C(NC(=Nc1ccccc1)SCSC(=Nc1ccccc1)NC(=O)c1ccco1)c1ccco1	> 14.5 µM	> 14.5 µM	
O=C1OC2(OC2c2ccccc2)c2ccccc21 (stereo not given)	> 200 µM	> 200 µM	
CC(C)=CCC[C@]1(C)C=Cc2c(O)c3c(c(CC=C(C)C)c2O1)O[C@]12C(=C[C@@H]4CC1C(C)(C)O[C@@]2(C/C=C(/C)C(=O)O)C4=O)C3=O	> 0.2 µM	0.0631 µM	
O=C(C1OC1c1ccc(Cl)cc1)C12CC3CC(CC(C3)C1)C2 (stereo not given)	> 200 µM	18.2 µM	
CCOC(=O)C1(Cc2ccccc2)SCCCS1	> 91.2 µM	> 91.2 µM	
S=c1[nH]c(=S)c2[nH]cnc2[nH]1	> 200 µM	85.1 µM	
O=C(O)c1onc2ccccc12	> 1510 µM	1000 µM	
Cc1ccccc1NC(=O)C1C(=O)N(c2ccccc2C)C(=O)/C1=N\NC(N)=O (stereo not given)	> 13.2 µM	> 13.2 µM	
O=C(Nc1ccccc1)c1cc(S(=O)(=O)Nc2nc3ncccc3[nH]2)c(SSc2cc(Cl)c(C(=O)Nc3ccccc3)cc2S(=O)(=O)Nc2nc3ncccc3[nH]2)cc1Cl	112 µM	> 200 µM	
Cc1c(C)c(C)c2c(c1C)CC2=O	> 77.6 µM	> 77.6 µM	
[Pt].c1ccc(P(CCP(CCP(c2ccccc2)c2ccccc2)CCP(c2ccccc2)c2ccccc2)c2ccccc2)cc1	> 5.62 µM	2.95 µM	
N/C1=C/C(=O)NC(=O)c2c(c3ccccc3oc2=O)C1	> 200 µM	> 200 µM	
O=c1c(-c2ccccc2)c2oc(c1-c1ccccc1)CS(=O)(=O)CCC2	> 97.7 µM	18.6 µM	
C[N+](C)(CCNc1ccc(NCC[N+](C)(C)Cc2ccc([N+](=O)[O-])cc2)c2c1C(=O)c1ccccc1C2=O)Cc1ccc([N+](=O)[O-])cc1	> 151 µM	> 151 µM	
CC(C)OC(=O)OCSc1ccccc1N=Cc1cccc([N+](=O)[O-])c1	> 200 µM	38 µM	
